One assay concerns the target PRK2 (Homo sapiens, UniProt Q16513). The assay can be described thus: Kinase profiling. It is filed as biochemical.
Assay [1] deals with Bone-marrow-derived macrophages. The assay can be described thus: Pro-inflammatory cytokine secretion (BIOPLEX). The settings on record: 3 μM bosutinib or 0.3 μM dasatinib 1 h, LPS 8 h. It is filed as cell-based, mouse. Here is the method: The concentration of TNFα, IL-6, IL-10 and IL-12p40 in cell-free culture supernatants were measured using the Bio-Plex Pro Assay system (Bio-Rad).

For another assay, the target named is T1, PINK (Tribolium castaneum, UniProt D6WMX4).
T1 sequence (D6WMX4 1-570): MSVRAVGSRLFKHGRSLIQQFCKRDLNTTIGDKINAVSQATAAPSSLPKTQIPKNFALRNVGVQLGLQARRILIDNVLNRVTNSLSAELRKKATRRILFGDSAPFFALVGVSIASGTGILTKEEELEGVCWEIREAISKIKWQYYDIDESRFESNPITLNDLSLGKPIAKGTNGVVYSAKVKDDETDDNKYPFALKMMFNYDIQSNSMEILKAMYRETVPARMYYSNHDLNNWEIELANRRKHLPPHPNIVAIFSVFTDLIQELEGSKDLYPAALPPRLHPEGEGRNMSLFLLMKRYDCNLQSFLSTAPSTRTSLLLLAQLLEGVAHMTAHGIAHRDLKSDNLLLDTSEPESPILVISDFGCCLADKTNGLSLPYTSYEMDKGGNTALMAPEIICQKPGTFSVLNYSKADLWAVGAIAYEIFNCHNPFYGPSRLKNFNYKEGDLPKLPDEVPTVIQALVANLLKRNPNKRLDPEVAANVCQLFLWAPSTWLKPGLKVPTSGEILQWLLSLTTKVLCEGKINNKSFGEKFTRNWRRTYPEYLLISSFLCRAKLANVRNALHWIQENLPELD
The assay can be described thus: Kinase profiling. It is filed as biochemical.

A further assay deals with T2, TAO1 (Homo sapiens, UniProt Q7L7X3).
T2 sequence (Q7L7X3 1-1001): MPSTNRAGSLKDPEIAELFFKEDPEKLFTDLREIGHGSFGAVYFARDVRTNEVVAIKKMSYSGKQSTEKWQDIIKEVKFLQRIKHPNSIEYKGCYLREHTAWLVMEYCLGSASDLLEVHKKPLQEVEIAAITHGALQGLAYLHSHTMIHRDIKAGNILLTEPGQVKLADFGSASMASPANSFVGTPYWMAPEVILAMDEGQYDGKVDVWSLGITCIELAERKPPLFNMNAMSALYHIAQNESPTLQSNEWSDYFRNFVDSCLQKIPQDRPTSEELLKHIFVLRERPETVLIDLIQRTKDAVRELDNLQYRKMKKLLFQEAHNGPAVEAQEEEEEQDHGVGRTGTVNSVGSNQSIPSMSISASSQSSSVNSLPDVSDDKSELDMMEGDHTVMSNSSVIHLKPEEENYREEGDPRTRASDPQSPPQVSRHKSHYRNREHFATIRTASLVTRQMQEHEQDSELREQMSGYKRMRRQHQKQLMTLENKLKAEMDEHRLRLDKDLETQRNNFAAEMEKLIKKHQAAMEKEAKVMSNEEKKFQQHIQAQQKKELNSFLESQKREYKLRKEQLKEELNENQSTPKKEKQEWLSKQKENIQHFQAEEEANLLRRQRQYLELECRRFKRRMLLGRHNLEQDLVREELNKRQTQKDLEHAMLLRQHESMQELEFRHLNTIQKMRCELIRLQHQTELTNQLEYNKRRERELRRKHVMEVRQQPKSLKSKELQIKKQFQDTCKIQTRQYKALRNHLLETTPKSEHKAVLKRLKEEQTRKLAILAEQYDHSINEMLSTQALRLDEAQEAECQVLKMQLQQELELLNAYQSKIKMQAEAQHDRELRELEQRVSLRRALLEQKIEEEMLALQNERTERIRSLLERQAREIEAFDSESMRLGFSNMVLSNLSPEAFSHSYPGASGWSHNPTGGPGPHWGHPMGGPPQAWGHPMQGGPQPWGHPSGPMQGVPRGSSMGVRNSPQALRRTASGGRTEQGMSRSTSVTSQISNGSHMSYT
The assay can be described thus: Kinase profiling. It is filed as biochemical.

For the next assay, the system named is CRTC3. The assay can be described thus: CRTC3 nuclear translocation (immunofluorescence). The settings on record: bone-marrow-derived macrophages, 1 h. It is filed as cell-based, mouse. Here is the method: Macrophages were seeded on glass coverslips and treated with inhibitors for 1 h. Cells were then fixed for 10 min in 4% paraformaldehyde, permeabilized for 5 min using 0.1% Triton X-100 in PBS and blocked for 45 min using 3% BSA in PBS. Cells were stained with anti-CRTC3 and anti-tubulin followed by Alexa Fluor® […] anti-rabbit and Alexa Fluor® 488-conjugated anti-mouse antibodies respectively. Antibodies were diluted in blocking buffer and incubated with the cells for 45 min. Cells were mounted in Prolong Gold Antifade Reagent containing DAPI (Invitrogen) and visualized under a Zeiss LSM 700 confocal microscope using an Alpha Plan-Apochromat ×100/numerical aperture (NA) 1.46 objective (optical section thickness 0.7 μm). Fields of cells were selected at random using only the DAPI stained channel. Optical sections were taken through the centre of the nuclei, 10 fields collected per coverslip and images were quantified using the Volocity programme (PerkinElmer). Nuclei were identified using the DAPI stained channel, merged objects were separated and the mean intensity of the […] in the nuclear and cytoplasmic regions was measured. For each field, the mean of the nuclear to cytoplasmic intensity ratio was calculated, which was subsequently used to determine the overall mean nuclear to cytoplasmic intensity ratio for each treatment.

Another assay has as its target CSK (Homo sapiens, UniProt P41240). The assay can be described thus: Kinase profiling. It is filed as biochemical.

Here are results for two compounds from PMC4286194 (Biochemical Journal, 2015).

The structures appear in SMILES notation.

Sequence of PRK2 (Q16513 whole entry): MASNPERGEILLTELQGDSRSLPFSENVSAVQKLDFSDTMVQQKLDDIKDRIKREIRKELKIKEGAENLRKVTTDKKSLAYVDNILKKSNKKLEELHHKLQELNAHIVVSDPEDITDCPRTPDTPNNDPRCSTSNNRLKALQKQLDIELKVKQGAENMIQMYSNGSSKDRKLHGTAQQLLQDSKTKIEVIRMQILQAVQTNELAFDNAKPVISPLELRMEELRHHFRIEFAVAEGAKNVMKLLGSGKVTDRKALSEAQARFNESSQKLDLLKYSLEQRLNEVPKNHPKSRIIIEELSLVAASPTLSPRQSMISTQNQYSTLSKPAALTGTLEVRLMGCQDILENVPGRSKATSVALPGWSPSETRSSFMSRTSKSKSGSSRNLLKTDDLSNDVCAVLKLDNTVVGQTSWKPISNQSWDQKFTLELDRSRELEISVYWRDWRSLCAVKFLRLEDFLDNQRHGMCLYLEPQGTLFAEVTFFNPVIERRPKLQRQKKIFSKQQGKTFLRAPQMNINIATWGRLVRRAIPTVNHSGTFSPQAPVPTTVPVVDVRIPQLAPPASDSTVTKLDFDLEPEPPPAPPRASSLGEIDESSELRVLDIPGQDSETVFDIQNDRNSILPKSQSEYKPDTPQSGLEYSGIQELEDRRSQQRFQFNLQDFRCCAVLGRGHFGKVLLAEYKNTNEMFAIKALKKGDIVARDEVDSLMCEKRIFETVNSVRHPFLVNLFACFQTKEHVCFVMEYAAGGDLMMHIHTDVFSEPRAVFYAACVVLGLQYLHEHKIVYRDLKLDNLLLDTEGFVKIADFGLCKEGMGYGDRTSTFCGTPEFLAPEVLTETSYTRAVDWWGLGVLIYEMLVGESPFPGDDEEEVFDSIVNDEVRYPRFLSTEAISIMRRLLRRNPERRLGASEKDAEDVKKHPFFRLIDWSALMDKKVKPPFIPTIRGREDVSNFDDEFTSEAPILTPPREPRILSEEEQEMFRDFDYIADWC
Sequence of CSK (P41240 whole entry): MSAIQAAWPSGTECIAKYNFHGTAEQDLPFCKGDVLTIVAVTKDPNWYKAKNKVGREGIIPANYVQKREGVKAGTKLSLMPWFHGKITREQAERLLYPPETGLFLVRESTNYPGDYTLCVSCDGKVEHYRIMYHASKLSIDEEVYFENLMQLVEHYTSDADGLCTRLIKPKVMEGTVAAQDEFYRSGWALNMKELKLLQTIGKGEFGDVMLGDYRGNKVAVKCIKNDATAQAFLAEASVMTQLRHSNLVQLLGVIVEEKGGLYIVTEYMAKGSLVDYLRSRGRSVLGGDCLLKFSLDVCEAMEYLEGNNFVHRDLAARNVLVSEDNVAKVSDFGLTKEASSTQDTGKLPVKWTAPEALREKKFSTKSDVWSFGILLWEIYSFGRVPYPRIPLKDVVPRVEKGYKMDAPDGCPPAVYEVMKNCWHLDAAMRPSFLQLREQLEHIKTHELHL

As for `COc1cc(Nc2c(C#N)cnc3cc(OCCCN4CCN(C)CC4)c(OC)cc23)c(Cl)cc1Cl` [Bosutinib, bosutinib], the remaining activity (usually the signal under treatment as a percentage of the control signal) at 0.1 µM at PRK2 was found to be 86 ± 6%; at PINK, 112 ± 9%; on CSK, 65 ± 7%. In addition, the remaining activity at 1 µM at PRK2 turned out to be 56 ± 3%; at PINK, 125 ± 13%; at TAO1 it was 102 ± 7%; at CSK, 4%. Moreover, the “Production of IL-6, IL-12p40 and TNFα” value in assay [1] is listed as “inhibited”. Also, the “Localization of CRTC3” value with CRTC3 is reported as “translocation to the nucleus”.
With `Cc1nc(Nc2ncc(C(=O)Nc3c(C)cccc3Cl)s2)cc(N2CCN(CCO)CC2)n1` [Dasatinib], the remaining activity at 0.1 µM on PRK2 came out at 100 ± 2%; on PINK, 117 ± 1%; at TAO1 (0.1 µM), 120 ± 9%; on CSK, 97 ± 19%. For the same compound, the remaining activity at 1 µM at PRK2 came to 101%; on PINK, 133 ± 5%; at TAO1, 95 ± 7%; at CSK, 8 ± 3%. The “Production of IL-6, IL-12p40 and TNFα” value in assay [1] is recorded as “inhibited”. For the same compound, in the assay on CRTC3, the “Localization of CRTC3” value was “translocation to the nucleus”.
